In brackets after ≈: the same amount, converted by molar mass. Entries after “also recorded” stand apart in the source; their conditions may differ. Read-outs that look alike come from different tables or passages of the source.
Key:
[1] = test system: A375 cells; assay: Flow cytometry (PI) G2/M accumulation and sub-G1 apoptosis, A375; assay type: cell-based, human; settings: for EC50: Homo sapiens
Description: (§1) A375 and NCTC2544 adherent cells were trypsinized, mixed with floating cells, washed with PBS and permeabilised in 70% (vol/vol) ethanol/PBS solution at 4° C. for at least 24 hours. Jurkat, HeL023 and PBMC cells were centrifuged for 10 minutes at 1000×g. The cell pellet was then resuspended and permeabilised in 70% (vol/vol) ethanol/PBS solution at 4° C. for at least 24 hours. The cells were washed with PBS and the DNA was stained with a PBS solution, containing 20 μg/ml of propidium iodide and 100 μg/ml of RNAse, at room temperature for 30 minutes. Cells were analysed by FACScan (Becton-Dickinson) and the content of DNA was evaluated by the Cell-LISYS program (Becton-Dickinson). Cell distribution among cell cycle phases and apoptotic cells was evaluated as previously described (Secchiero et al., 2001). Briefly, the cell cycle distribution is shown as the percentage of cells containing 2n (G1 phase), 4n (G2 and M phases), 4n>x>2n. DNA amount (S phase) judged by propidium iodide staining. The apoptotic population is the percentage of cells with DNA content lower than 2n.
Cell proliferation and apoptosis are quantified by flow cytometer analysis after propidium-iodide (PI) DNA staining.

[2] = test system: A375 melanoma cells; assay: Colony formation assay of A375 cells; assay type: cell-based, human
Description: FIG. 2 illustrates colony formation assay of A375 cells. Cells were treated with different drugs and colonies were counted after 7 days. The values represent the mean ±SEM of four independent experiments. D=DMSO (control); T=paclitaxel, 0.75 ng/ml; M=MRE 3008F20, 10 μM; C=CI-IB-MECA, 10 μM; TM=paclitaxel plus MRE 3008F20; TC=paclitaxel plus CI-IB-MECA treated cells. *P<0.01 TM versus T. Analysis was by ANOVA followed by Dunnett's test.;
Control plates received the same volume of DMSO alone. After 7 days of growth at 37° C. in humidified atmosphere containing 5% CO2, the cells were fixed with absolute methanol for 5′ and stained with 1/10 Giemsa/phosphate-buffered saline (PBS) staining solution for 10 minutes. Staining solution was removed and colonies of greater than 30 cells were scored as survivors. For each treatment, six individual wells were scored.
Colony formation assay experiments were performed on A375 melanoma cells treated with increasing concentration of paclitaxel (0.25-75 ng/ml). A3 stimulation is achieved with the selective agonist CI-IB-MECA while A3 blockade is obtained with the selective antagonist MRE 3008F20. […] (FIG. 2)

[3] = test system: NCTC2544 cells; assay: Flow cytometry (PI) G2/M accumulation and sub-G1 apoptosis, NCTC2544; assay type: cell-based, human; settings: NCTC 2544
Description: as §1
(§2) To verify the role of A3 receptor antagonists on paclitaxel and vindesine mediated alteration of cell proliferation and apoptosis, testing was performed with additional cell lines. […] Experimental conditions are similar to those for the A375 cell testing.

[4] = test system: human melanoma A375 cell line; assay: MTT growth inhibitory assay, A375; assay type: cell-based; settings: for IC50: A-375, Human Melanoma A375, read-out: IC50 growth inhibition, agent used separately
Description: (§5) One of the growth inhibitory assays is the MTT assay. Cells (1000-1500 cells/well) are seeded in a 96-well micro culture plate in a total volume of 100 μl/well. After overnight incubation in a humidified incubator at 37° C. with 5% CO2-95% air, chemotherapeutic drug solutions diluted with culture medium at various concentrations are added in the amount of 100 μl to each well. The plates are placed in a humidified incubator at 37° C. with 5% CO2-95% air for 7-10 days. The plates are then centrifuged briefly and 100 μl of the growth medium is removed. Cell cultures are incubated with 50 μl of MTT [3-(4,5-dimethylthiazol-2-yl)-2,5-diphenyl-tetrazolium bromide] reagent (1 mg/ml in Dulbecco's phosphate-buffered saline) for 4 hr at 37° C. The resultant purple formazan precipitate is solubilized with 200 μl of 0.04 N HCl in isopropanol. Absorbance is measured at a wavelength of 595 nm and at a reference wavelength of 655 nm using a Bio-Rad Model 3550 Microplate Reader. Preferably, all tests are run in duplicate for each dose level.
(§6) The EZED50 computer program estimates the concentration of agent that inhibits cell growth by 50% as compared to the control cells. This is termed the IC50 and is determined by curve fitting test data using the following four logistic equation. [formula]
(§7) Inhibitory assay testing is also used to determine enhanced therapeutic effects from combining A3 receptor antagonists with other tumor inhibiting agents. The inhibitory cell growth assays are run with and without selected concentrations of A3 receptor antagonists. An enhanced therapeutic effect is present when the IC50 of the tumor inhibiting agent is lower with the A3 receptor antagonist.
(§8) Quantitatively, the enhancement factor (EF) is calculated by dividing the IC50 value of the tumor inhibiting agent for a tumor cell line by the IC50 value of the agent with A3 receptor antagonist for the same cell line: [formula]

[5] = biological target: T1, P-gp drug efflux activity in HeL023 cells (Homo sapiens, UniProt P08183); assay: Rhodamine 123 efflux assay, HeL023 cells; assay type: cell-based; settings: Rh123 efflux, concentrations of Table 11 (MRE3008F20 10 μM)
T1 construct: nearly all (100±1%) the cells expressing high level of functional P-gp; endogenous in cells; host or cells: HeL023 human erythroleukemia cells
Description: (§3) 5×10^5 cells from each subline were loaded with 50 ng/ml of rhodamine 123 for 30 minutes at 37° C. in medium. The cells were washed and resuspended in dye-staining agent free medium for 3 hours at 37° C. to allow rhodamine 123 efflux. The cells were then washed twice and the fluorescence of intracellular rhodamine 123 were analysed with Flow cytometer (residual fluorescence FRES). The fluorescence was compared with loaded cells maintained at 4° C. to prevent drug export (maximal fluorescence FMAX). […] Cells from each subline that were not being exposed to rhodamine 123 were used as negative controls.
(§4) Rhodamine 123 (Rh123) retention, a P-gp functional assay, was studied in all cell lines. This assay was performed by incubating cells with Rh123 and determining Rh123 accumulation by measuring its fluorescence. The maximum load of Rh123 (FMAX) was quantified at the end of treatment harvesting the cells and storing them at 4° C. to prevent any active Rh123 efflux . The P-gp drug efflux was allowed incubating Rh123-loaded cells in fresh new medium Rh123-free for 3 hours at 37° C. After this incubation, residual fluorescence (FRES) was measured and compared to FMAX.

[6] = test system: HeL023 cells; assay: Flow cytometry (PI) G2/M accumulation and sub-G1 apoptosis, HeL023; assay type: cell-based, human
Description: as §1, §2

[7] = test system: human colon carcinoma HT29 cell line; assay: MTT growth inhibitory assay, HT29; assay type: cell-based; settings: for IC50: HT-29
Description: as §5, §6, §7, §8

[8] = test system: human lung carcinoma SKMES; assay: MTT growth inhibitory assay, SKMES; assay type: cell-based
Description: as §5, §6, §7, §8

[9] = biological target: T2, P-gp drug efflux activity in A375 cells (Homo sapiens, UniProt P08183); assay: Rhodamine 123 efflux assay, A375 cells; assay type: cell-based
T2 construct: endogenous in cells; host or cells: A375 human melanoma cells (ATCC)
Description: as §3, §4

[10] = test system: human pancreatic cancer Panc-1; assay: MTT growth inhibitory assay, Panc-1; assay type: cell-based
Description: as §5, §6, §7, §8

[11] = test system: Jurkat cells; assay: Flow cytometry (PI) G2/M accumulation and sub-G1 apoptosis, Jurkat; assay type: cell-based, human
Description: as §1, §2

[12] = biological target: T3, rA1 adenosine receptor (Rattus norvegicus, UniProt P25099); assay: Binding affinity at rA1 adenosine receptor
T3 sequence (P25099 1-326): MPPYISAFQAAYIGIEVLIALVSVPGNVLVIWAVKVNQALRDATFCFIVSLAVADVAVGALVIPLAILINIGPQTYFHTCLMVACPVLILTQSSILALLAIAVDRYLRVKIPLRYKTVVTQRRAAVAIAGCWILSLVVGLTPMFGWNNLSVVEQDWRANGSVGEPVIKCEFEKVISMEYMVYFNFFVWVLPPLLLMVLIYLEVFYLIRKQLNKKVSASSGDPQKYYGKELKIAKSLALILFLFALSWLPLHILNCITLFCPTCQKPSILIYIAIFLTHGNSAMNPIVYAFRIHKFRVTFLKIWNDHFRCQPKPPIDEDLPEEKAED

[13] = test system: A375 cells; assay: Metabolic (MEK/ERK/p38MAPK) inhibitor signalling study by flow cytometry, A375; assay type: cell-based, human; settings: U0126 30 μM; for prevention of MRE3008F20-induced accumulation in G2/M: MRE3008F20 10 μM
[14] = 100 mg/m^2; cited from earlier work
[15] = test system: PBMC blasts; assay: Flow cytometry (PI) G2/M accumulation, PBMC blasts; assay type: cell-based; settings: Homo sapiens, DMSO (no antagonist), read-out: vindesine EC50 (G2/M accumulation)
Description: Cells are passaged two or three times weekly at a ratio between 1:5 and 1:10. Lymphocytes were isolated from buffy coats kindly provided by the Blood Bank of the University Hospital of Ferrara. Blood donated by healthy volunteers, after informed consent for research was obtained. Lymphocytes were isolated by density gradient centrifugation (Ficoll/Histopaque 1.077 g/ml). The cells are stimulated with purified phytohemoagglutinin (1 μg/ml) and expanded in RPMI medium added of interleukin 2 (20 Units/ml) and 10% fetal calf serum.
Jurkat, HeL023 and PBMC cells were centrifuged for 10 minutes at 1000×g. The cell pellet was then resuspended and permeabilised in 70% (vol/vol) ethanol/PBS solution at 4° C. for at least 24 hours. The cells were washed with PBS and the DNA was stained with a PBS solution, containing 20 μg/ml of propidium iodide and 100 μg/ml of RNAse, at room temperature for 30 minutes. Cells were analysed by FACScan (Becton-Dickinson) and the content of DNA was evaluated by the Cell-LISYS program (Becton-Dickinson). Cell distribution among cell cycle phases and apoptotic cells was evaluated as previously described (Secchiero et al., 2001). Briefly, the cell cycle distribution is shown as the percentage of cells containing 2n (G1 phase), 4n (G2 and M phases), 4n>x>2n. DNA amount (S phase) judged by propidium iodide staining. […]

[16] = Human Colon Carcinoma HT29, read-out: IC50 growth inhibition, agent used separately
[17] = Human Lung Carcinoma SKMES, read-out: IC50 growth inhibition, agent used separately
[18] = Human Pancreatic Cancer Panc-1, read-out: IC50 growth inhibition, agent used separately
[19] = Homo sapiens, DMSO (no antagonist), read-out: vindesine EC50 (G2/M accumulation)

T1 sequence (P08183 whole entry): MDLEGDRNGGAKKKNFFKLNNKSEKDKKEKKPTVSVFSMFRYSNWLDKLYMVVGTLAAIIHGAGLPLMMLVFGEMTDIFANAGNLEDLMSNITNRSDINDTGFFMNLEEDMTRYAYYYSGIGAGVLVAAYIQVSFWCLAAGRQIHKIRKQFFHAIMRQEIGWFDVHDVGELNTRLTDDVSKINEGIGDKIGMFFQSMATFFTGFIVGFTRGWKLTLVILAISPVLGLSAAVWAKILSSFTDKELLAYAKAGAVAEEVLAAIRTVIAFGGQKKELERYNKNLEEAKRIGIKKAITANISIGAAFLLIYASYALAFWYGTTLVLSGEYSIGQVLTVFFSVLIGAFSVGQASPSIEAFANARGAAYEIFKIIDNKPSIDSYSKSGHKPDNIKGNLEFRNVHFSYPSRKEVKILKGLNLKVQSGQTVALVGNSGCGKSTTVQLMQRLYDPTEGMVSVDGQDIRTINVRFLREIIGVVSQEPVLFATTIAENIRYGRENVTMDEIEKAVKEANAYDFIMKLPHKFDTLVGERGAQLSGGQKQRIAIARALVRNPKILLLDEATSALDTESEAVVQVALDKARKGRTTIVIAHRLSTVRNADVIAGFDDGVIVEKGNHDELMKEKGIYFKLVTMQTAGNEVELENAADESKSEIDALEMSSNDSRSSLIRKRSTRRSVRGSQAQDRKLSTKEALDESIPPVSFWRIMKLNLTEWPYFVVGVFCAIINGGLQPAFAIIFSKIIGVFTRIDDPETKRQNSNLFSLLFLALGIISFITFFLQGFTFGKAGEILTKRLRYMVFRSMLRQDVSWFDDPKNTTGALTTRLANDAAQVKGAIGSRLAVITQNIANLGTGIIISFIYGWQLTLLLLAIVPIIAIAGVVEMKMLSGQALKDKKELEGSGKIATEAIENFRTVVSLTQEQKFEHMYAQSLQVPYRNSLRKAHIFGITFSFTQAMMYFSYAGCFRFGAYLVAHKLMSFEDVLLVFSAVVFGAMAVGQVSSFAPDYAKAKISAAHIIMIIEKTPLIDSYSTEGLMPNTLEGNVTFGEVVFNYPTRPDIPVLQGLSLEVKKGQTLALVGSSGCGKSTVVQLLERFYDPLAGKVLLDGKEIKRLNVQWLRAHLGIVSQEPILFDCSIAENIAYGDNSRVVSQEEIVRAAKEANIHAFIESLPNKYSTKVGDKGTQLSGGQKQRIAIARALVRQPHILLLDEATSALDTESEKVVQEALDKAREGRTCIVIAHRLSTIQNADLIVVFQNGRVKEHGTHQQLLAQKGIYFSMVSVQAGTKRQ
T2 sequence (P08183 whole entry): as above

CCCn1cc2c(nc(NC(=O)Nc3ccc(OC)cc3)n3nc(-c4ccco4)nc23)n1 [MRE3008F20]
paclitaxel ECMAX with A3 antagonist ([1]; A375, MRE3008F20 10 μM): 3.04 ± 0.32 ng/mL
vindesine ECMAX with A3 antagonist ([1]; A375, MRE3008F20 10 μM): 1.66 ± 0.20 nM
EC50 ([1]; A-375, read-out: SEC50 (dose inducing 50% of the enhancing activity to vindesine)): 550 ± 60 nM
colony formation, % of DMSO control ([2]; 10 μM alone, 7 days): 59%
colony formation predicted by geometrical combination ([2]; MRE 3008F20 10 μM plus paclitaxel 0.75 ng/ml): 38%
paclitaxel ECMAX with A3 antagonist ([3]; MRE3008F20 10 μM): 2.55 ± 0.24 ng/mL
vindesine ECMAX with A3 antagonist ([3]; MRE3008F20 10 μM): 1.34 ± 0.15 nM
Enhancement Factor for docetaxel ([4]; A375, A3 antagonist 1 μg/ml): 63.3
Enhancement Factor for paclitaxel ([4]; A375, A3 antagonist 1 μg/ml): 7.1
Enhancement Factor for docetaxel ([4]; A375, A3 antagonist 3 μg/ml): 6.9
Enhancement Factor for paclitaxel ([4]; A375, A3 antagonist 3 μg/ml): 6.4
Enhancement Factor for docetaxel ([4]; A375, A3 antagonist 10 μg/ml): 5.3
Enhancement Factor for paclitaxel ([4]; A375, A3 antagonist 10 μg/ml, paclitaxel 0.0001-0.05 μg/ml): 7.1
enhancement factor for paclitaxel at all three concentrations ([4]; A375, A3 antagonist 1, 3 and 10 μg/ml): 6.4-7.1
IC50 ([4]; Homo sapiens): 91300 ± 1500 ng/mL (≈ 211000 nM)
inhibition at 10 µg/mL ([4]; Homo sapiens, A-375, A375, 10 μg/ml, read-out: growth inhibition in the presence of A3 antagonist alone): 30 to 45%
inhibition of P-gp activity (in words) [5]: near total P-gp inhibition; also recorded: strong inhibitors of P-gp activity
paclitaxel ECMAX with A3 antagonist ([6]; MRE3008F20 10 μM): 3.19 ± 0.30 ng/mL
vindesine ECMAX with A3 antagonist ([6]; MRE3008F20 10 μM): 1.05 ± 0.09 nM
Enhancement Factor for docetaxel ([7]; HT29, A3 antagonist 1 μg/ml): 15.0
Enhancement Factor for doxorubicin ([7]; HT29, A3 antagonist 1 μg/ml): 1.6
Enhancement Factor for irinotecan HCl ([7]; HT29, A3 antagonist 1 μg/ml): 1.8
Enhancement Factor for paclitaxel ([7]; HT29, A3 antagonist 1 μg/ml): 2.9
IC50 [7, 16]: 39400 ± 7700 ng/mL (≈ 91100 nM)
IC50 [8, 17]: 19000 ± 1200 ng/mL (≈ 43900 nM)
Enhancement Factor for docetaxel ([8]; SKMES, A3 antagonist 1 μg/ml): 3.6
Enhancement Factor for irinotecan HCL ([8]; SKMES, A3 antagonist 1 μg/ml): 2.1
Enhancement Factor for paclitaxel ([8]; SKMES, A3 antagonist 1 μg/ml): 4.1
Enhancement Factor for vinblastine ([8]; SKMES, A3 antagonist 1 μg/ml): 1.2
blockade of P-gp mediated Rh123 transport (in words) ([9]; 10 μM, FRES comparable to FMAX): completely blockade of P-gp mediated Rh123 transport
IC50 [10, 18]: 15800 ± 13500 ng/mL (≈ 36500 nM)
Enhancement Factor for docetaxel ([10]; Panc-1, A3 antagonist 1 μg/ml): 1.8
Enhancement Factor for paclitaxel ([10]; Panc-1, A3 antagonist 1 μg/ml): 1.9
paclitaxel ECMAX with A3 antagonist ([11]; MRE3008F20 10 μM): 2.29 ± 0.31 ng/mL
Ki [12]: > 10000 nM

N#CC(=C(/N)Sc1ccccc1N)/C(C#N)=C(\N)Sc1ccccc1N [U0126]
effect on G2/M accumulation rate of paclitaxel or vindesine alone (in words) ([13]; PD98059 20 μM, SB203580 1 μM): did not alter
prevention of MRE3008F20-induced accumulation in G2/M ([13]; in presence of paclitaxel): 23±5%
prevention of MRE3008F20-induced accumulation in G2/M ([13]; in presence of vindesine 1 nM): 48±5%
reduction of apoptosis induced by paclitaxel ([13]; paclitaxel 25 ng/ml, PD98059 20 μM, SB203580 1 μM): 73±10%
effect on MRE 3008F20 blockade of P-gp (in words) ([9]; U0126 30 μM for 30 minutes, then MRE3008F20 10 μM): failed to prevent MRE 3008F20 blockade of P-gp

CC(=O)O[C@@]12CO[C@@H]1C[C@H](O)[C@@]1(C)C(=O)[C@H](O)C3=C(C)[C@@H](OC(=O)[C@H](O)[C@@H](NC(=O)OC(C)(C)C)c4ccccc4)C[C@@](O)([C@@H](OC(=O)c4ccccc4)[C@H]21)C3(C)C [docetaxel, reference compound]
acute hypersensitivity reaction, % of patients [14]: 13%
severe hypersensitivity reaction, % of patients [14]: 1.2%
IC50 ([4]; Homo sapiens): 0.2 ± 0.07 ng/mL (≈ 0.248 nM)
IC50 [7, 16]: 0.24 ± 0.05 ng/mL (≈ 0.297 nM)
IC50 ([7]; Homo sapiens, HT29, docetaxel 0.00001-0.005 μg/ml, alone, read-out: IC50 of docetaxel, A3 antagonist none): 0.018 ng/mL (≈ 0.0223 nM)
IC50 ([8]; Homo sapiens, SKMES, docetaxel 0.00001-0.005 μg/ml, alone, read-out: IC50 of docetaxel, A3 antagonist none): 0.47 ng/mL (≈ 0.582 nM)
IC50 [8, 17]: 0.84 ± 0.37 ng/mL (≈ 1.04 nM)
IC50 ([10]; Homo sapiens, Panc-1, docetaxel 0.00001-0.005 μg/ml, alone, read-out: IC50 of docetaxel, A3 antagonist none): 0.68 ng/mL (≈ 0.842 nM)
IC50 [10, 18]: 0.37 ± 0.31 ng/mL (≈ 0.458 nM)

CC[C@]1(O)C[C@@H]2CN(CCc3c([nH]c4ccccc34)[C@@](C(=O)OC)(c3cc4c(cc3OC)N(C)[C@H]3[C@@](O)(C(N)=O)[C@H](O)[C@]5(CC)C=CCN6CC[C@]43[C@@H]65)C2)C1 [vindesine]
EC50 [15]: 1.1 ± 0.9 nM
vindesine ECMAX (sub-G1, maximal apoptosis) ([1]; A375, DMSO (no antagonist)): 3.54 ± 0.42 nM
EC50 ([1]; A-375, 24 h, read-out: vindesine EC50 (G2/M accumulation)): 1.9 ± 0.2 nM
EC50 [3, 19]: 0.89 ± 0.08 nM
vindesine ECMAX (sub-G1) ([3]; DMSO (no antagonist)): 2.50 ± 0.27 nM
vindesine ECMAX (sub-G1) ([6]; DMSO (no antagonist)): 33.11 ± 4.02 nM
EC50 [6, 19]: 25.8 ± 3.25 nM
EC50 [11, 19]: 0.93 ± 0.08 nM

Source: patent US20040067932A1 (priority 2002, published 2004)
